Measurements from ChEMBL document CHEMBL2163239, “Inhibitors of human immunodeficiency virus type 1 (HIV-1) attachment 6. Preclinical and human pharmacokinetic profiling of BMS-663749, a phosphonooxymethyl prodrug of the HIV-1 attachment inhibitor 2-(4-benzoyl-1-piperazinyl)-1-(4,7-dimethoxy-1H-pyrrolo[2,3-c]pyridin-3-yl)-2-oxoethanone …” (J Med Chem, 2012).
Activity calls are given as the source filed them. No cut-off for these calls is given here.

Experiments:
Homo sapiens = experiment: Toxicity in HIV 1-infected human assessed as adverse events at 1800 mg, po bid for 8 days measured upto 14 days; assay type: organism-based; conditions: in vivo
[1] = system: Human immunodeficiency virus 1; experiment: Antiviral activity against HIV 1-infected human assessed as reduction in viral load at 1800 mg, po bid for 8 days measured upto 14 days; assay type: functional, organism-based
[2] = Lipophilicity, log P of compound in octanol-PBS mixture at pH 6.5 by HPLC-UV analysis; assay type: physicochemical
[3] = Permeability across human Caco2 cells at pH 6.5; assay type: ADME, cell-based; conditions: Caco-2, pH 6.5, read-out: permeability
[4] = Cmax in high fat fed healthy human at 800 mg, po administered as capsule with high fat meal; assay type: ADME, organism-based; set-up: dose 800 mg, route oral; conditions: in vivo
[5] = Tmax in high fat fed healthy human at 800 mg, po administered as capsule with high fat meal; assay type: ADME, organism-based; conditions: in vivo
[6] = AUC (infinity) in high fat fed healthy human at 800 mg, po administered as capsule with high fat meal; assay type: ADME, organism-based; set-up: dose 800 mg, time infinity, route oral; conditions: plasma
[7] = Half life in high fat fed healthy human at 800 mg, po administered as capsule with high fat meal; assay type: ADME, organism-based; conditions: in vivo
[8] = Plasma concentration in high fat fed healthy human at 800 mg, po administered as capsule with high fat meal measured after 12 hrs; assay type: ADME, organism-based
[9] = Dissociation constant, pKa of compound; assay type: physicochemical

- logD [2]: 1.5
- Papp [3]: > 10 ×10⁻⁶ cm/s
- Cmax [4]: 4100 ng/mL
- Tmax [5]: 4 h
- AUC(0-inf) [6]: 21200 ng·h/mL
- half-life [7]: 840 min
- concentration at 12 h [8]: 175 ng/mL
- pKa [9]: 2.6
SMILES: COc1ncc(OC)c2c(C(=O)C(=O)N3CCN(C(=O)c4ccccc4)CC3)c[nH]c12
- Activity (Homo sapiens): Non-toxic
- Activity [1]: Active
